In patent US9458220B2 (priority 2010, dated 2016):

Columns and labels:
[1] = Dipeptide half life on IGF1 dipeptide extended (p-NH2-F)A19 analogs in PBS; assay type: physicochemical; conditions: Table 12; cleavage of (pNH2-Phe) amide linked dipeptide AibPro from the parent peptide
Experimental: Accordingly, the IGF1A chain alone was determined to be a good model for the study of pro-drug half life on IGF1 B:A (Y^B16L^B17) analog peptides. […] For simplicity, prodrug half lives were determined using only the IGF1 A chain in the absence of the B chain. The half lives of each propeptide was determined as described in Example 5.
The IGF^B16B17 analog peptide prodrugs were incubated in PBS, pH 7.4 at 37° C. and at predetermined time intervals an aliquot was taken and further degradation was quenched with 0.1% TFA and the aliquot was subjected to analytical HPLC analysis. Peaks a and b, representing the prodrug and active forms of the IGF^B16B17 analog peptide were identified with LC-MS and quantified by integration of peak area an HPLC. FIGS. 9A-9C show the output of an HPLC analysis of the degradation of the IGF^B16B17 analog peptide prodrug: IGF1A(Ala)^6,7,11,20(Aib-Pro-pNH—F)^19. Aliquots were taken at 20 minutes (FIG. 9A), 81 minutes (FIG. 9B) and 120 minutes (FIG. 9C) after beginning the incubation of the prodrug in PBS.

[2] = biological target: T1, human insulin receptor (Homo sapiens, UniProt P06213); assay: Insulin receptor competition binding assay (scintillation proximity); conditions: Table 9
T1 construct: expressed in transfected cells; plasma membrane fragments
T1 sequence (P06213 28-758 limits assumed): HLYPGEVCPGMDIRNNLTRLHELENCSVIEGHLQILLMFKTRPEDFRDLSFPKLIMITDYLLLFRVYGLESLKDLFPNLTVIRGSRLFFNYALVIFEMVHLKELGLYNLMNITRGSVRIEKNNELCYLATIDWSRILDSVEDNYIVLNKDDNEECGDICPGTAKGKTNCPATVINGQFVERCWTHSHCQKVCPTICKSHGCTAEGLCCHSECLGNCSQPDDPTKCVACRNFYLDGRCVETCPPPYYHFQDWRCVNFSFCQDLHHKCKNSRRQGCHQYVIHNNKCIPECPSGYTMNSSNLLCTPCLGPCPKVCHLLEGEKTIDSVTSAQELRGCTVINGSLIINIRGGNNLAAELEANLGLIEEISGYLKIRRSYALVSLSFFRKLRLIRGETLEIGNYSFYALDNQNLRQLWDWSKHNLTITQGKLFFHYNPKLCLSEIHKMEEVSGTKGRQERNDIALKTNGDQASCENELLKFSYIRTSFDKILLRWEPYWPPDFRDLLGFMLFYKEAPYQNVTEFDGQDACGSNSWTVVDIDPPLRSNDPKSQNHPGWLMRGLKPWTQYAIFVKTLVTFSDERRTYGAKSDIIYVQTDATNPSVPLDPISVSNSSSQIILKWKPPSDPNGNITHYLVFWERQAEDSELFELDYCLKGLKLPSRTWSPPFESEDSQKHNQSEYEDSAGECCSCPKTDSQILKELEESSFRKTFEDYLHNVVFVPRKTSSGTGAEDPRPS
T1 sequence (P06213 763-1382 partner limits assumed): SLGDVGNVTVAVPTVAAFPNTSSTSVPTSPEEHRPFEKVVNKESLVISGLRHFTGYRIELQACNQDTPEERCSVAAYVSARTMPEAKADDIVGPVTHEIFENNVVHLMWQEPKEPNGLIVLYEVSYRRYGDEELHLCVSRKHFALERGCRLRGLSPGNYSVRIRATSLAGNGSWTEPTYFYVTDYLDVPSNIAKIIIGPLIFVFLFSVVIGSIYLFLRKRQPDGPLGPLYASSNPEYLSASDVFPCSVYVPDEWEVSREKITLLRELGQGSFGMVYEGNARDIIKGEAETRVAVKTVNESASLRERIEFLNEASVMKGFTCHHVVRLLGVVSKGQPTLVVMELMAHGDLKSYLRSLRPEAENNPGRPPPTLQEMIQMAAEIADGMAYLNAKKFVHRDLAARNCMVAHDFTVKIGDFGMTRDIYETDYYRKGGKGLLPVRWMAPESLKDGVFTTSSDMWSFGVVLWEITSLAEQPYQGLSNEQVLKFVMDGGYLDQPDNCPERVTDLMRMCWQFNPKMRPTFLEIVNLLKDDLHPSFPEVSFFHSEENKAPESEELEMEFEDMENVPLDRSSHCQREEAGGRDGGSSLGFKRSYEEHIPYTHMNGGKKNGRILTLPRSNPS

[3] = biological target: T2, human IGF-1 receptor (Homo sapiens, UniProt P08069); assay: IGF-1 receptor competition binding assay (scintillation proximity); conditions: Table 9
T2 construct: expressed in transfected cells; plasma membrane fragments
T2 sequence (P08069 31-736 limits assumed): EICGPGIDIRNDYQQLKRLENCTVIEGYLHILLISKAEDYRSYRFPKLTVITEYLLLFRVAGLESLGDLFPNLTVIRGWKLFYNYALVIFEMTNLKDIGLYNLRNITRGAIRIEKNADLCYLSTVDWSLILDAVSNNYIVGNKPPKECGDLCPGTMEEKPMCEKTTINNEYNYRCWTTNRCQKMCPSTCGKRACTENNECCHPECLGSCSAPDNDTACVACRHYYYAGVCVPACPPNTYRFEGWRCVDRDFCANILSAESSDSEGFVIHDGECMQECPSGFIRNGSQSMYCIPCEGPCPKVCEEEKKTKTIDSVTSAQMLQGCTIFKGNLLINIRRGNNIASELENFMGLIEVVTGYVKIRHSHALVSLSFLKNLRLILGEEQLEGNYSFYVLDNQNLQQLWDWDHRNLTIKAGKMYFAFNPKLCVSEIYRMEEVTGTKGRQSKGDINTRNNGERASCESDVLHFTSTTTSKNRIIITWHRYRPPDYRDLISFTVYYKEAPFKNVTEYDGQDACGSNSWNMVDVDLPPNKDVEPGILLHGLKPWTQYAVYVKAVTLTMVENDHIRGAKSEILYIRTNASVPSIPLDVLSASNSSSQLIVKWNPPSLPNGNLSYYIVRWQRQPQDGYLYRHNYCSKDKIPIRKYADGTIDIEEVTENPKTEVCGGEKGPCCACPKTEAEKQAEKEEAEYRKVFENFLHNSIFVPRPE
T2 sequence (P08069 741-1367 partner limits assumed): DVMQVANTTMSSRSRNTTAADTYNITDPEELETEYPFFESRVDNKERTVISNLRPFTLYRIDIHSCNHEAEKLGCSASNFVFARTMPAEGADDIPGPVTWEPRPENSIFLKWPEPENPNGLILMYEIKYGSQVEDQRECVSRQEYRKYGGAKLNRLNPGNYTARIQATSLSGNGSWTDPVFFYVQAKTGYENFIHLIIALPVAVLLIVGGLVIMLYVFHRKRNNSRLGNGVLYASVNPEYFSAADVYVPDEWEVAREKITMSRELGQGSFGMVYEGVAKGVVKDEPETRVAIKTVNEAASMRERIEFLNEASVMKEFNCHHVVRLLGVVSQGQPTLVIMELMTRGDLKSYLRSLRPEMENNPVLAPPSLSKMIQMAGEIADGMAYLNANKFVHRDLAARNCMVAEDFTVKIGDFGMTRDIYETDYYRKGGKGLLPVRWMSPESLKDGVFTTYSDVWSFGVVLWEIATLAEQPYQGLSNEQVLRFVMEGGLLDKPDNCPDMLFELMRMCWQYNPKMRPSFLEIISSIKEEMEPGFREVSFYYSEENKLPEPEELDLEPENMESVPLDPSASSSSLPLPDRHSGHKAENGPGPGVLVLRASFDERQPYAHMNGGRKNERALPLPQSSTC

Insulin Receptor % insulin (in test) [2]	Insulin Receptor % native insulin activity (0.6 nM) [2]	IGF-1 Receptor % IGF-1 (in test) [3]	Structure (SMILES)	Half Life [1]
			CC[C@H](C)[C@H](NC(=O)CN)C(=O)N[C@H](C(=O)N[C@@H](CC(=O)O)C(=O)N[C@@H](CCC(=O)O)C(=O)N[C@@H](CSCNC(C)=O)C(=O)N[C@@H](CSSC[C@H](NC(=O)[C@H](CC(C)C)NC(=O)[C@@H](NC(=O)[C@H](CCC(=O)O)NC(=O)[C@@H]1CCCN1C(=O)CN)[C@@H](C)O)C(=O)NCC(=O)N[C@@H](C)C(=O)N[C@@H](CCC(=O)O)C(=O)N[C@@H](CC(C)C)C(=O)N[C@H](C(=O)N[C@@H](CC(=O)O)C(=O)N[C@@H](C)C(=O)N[C@@H](CC(C)C)C(=O)N[C@@H](Cc1ccc(O)cc1)C(=O)N[C@@H](CC(C)C)C(=O)N[C@H](C(=O)N[C@@H](CSCNC(C)=O)C(=O)NCC(=O)N[C@@H](CC(=O)O)C(=O)N[C@@H](CCCNC(=N)N)C(=O)NCC(=O)N[C@@H](Cc1ccccc1)C(=O)N[C@@H](Cc1ccc(O)cc1)C(=O)N[C@@H](Cc1ccccc1)C(=O)N[C@@H](CC(N)=O)C(=O)N[C@@H](CCCCN)C(=O)N1CCC[C@H]1C(=O)N[C@H](C(N)=O)[C@@H](C)O)C(C)C)C(C)C)C(=O)N[C@@H](Cc1ccccc1)C(=O)N[C@@H](CCCNC(=N)N)C(=O)N[C@@H](CO)C(=O)N[C@@H](CSCNC(C)=O)C(=O)N[C@@H](CC(=O)O)C(=O)N[C@@H](CC(C)C)C(=O)N[C@@H](CCCNC(=N)N)C(=O)N[C@@H](CCCNC(=N)N)C(=O)N[C@@H](CC(C)C)C(=O)N[C@@H](CCC(=O)O)C(=O)N[C@@H](CCSC)C(=O)N[C@@H](Cc1ccc(NC(=O)[C@@H]2CCCN2C(=O)C(C)(C)N)cc1)C(=O)N[C@@H](CSCNC(C)=O)C(=O)N[C@@H](C)C(=O)O)C(C)C	1.8 h
			CC[C@H](C)[C@H](NC(=O)CN)C(=O)N[C@H](C(=O)N[C@@H](CC(=O)O)C(=O)N[C@@H](CCC(=O)O)C(=O)N[C@H]1CSSC[C@@H]2NC(=O)[C@H](CO)NC(=O)[C@H](CCCNC(=N)N)NC(=O)[C@H](Cc3ccccc3)NC(=O)[C@H](CSSC[C@H](NC(=O)[C@H](CC(C)C)NC(=O)[C@@H](NC(=O)[C@H](CCC(=O)O)NC(=O)[C@@H]3CCCN3C(=O)CN)[C@@H](C)O)C(=O)NCC(=O)N[C@@H](C)C(=O)N[C@@H](CCC(=O)O)C(=O)N[C@@H](CC(C)C)C(=O)N[C@@H](C(C)C)C(=O)N[C@@H](CC(=O)O)C(=O)N[C@@H](C)C(=O)N[C@@H](CC(C)C)C(=O)N[C@@H](Cc3ccc(O)cc3)C(=O)N[C@@H](CC(C)C)C(=O)N[C@@H](C(C)C)C(=O)N[C@H](C(=O)NCC(=O)N[C@@H](CC(=O)O)C(=O)N[C@@H](CCCNC(=N)N)C(=O)NCC(=O)N[C@@H](Cc3ccccc3)C(=O)N[C@@H](Cc3ccc(O)cc3)C(=O)N[C@@H](Cc3ccccc3)C(=O)N[C@@H](CC(N)=O)C(=O)N[C@@H](CCCCN)C(=O)N3CCC[C@H]3C(=O)N[C@H](C(N)=O)[C@@H](C)O)CSSC[C@@H](C(=O)N[C@@H](C)C(=O)O)NC(=O)[C@H](Cc3ccc(NC(=O)[C@@H]4CCCN4C(=O)C(C)(C)N)cc3)NC(=O)[C@H](CCSC)NC(=O)[C@H](CCC(=O)O)NC(=O)[C@H](CC(C)C)NC(=O)[C@H](CCCNC(=N)N)NC(=O)[C@H](CCCNC(=N)N)NC(=O)[C@H](CC(C)C)NC(=O)[C@H](CC(=O)O)NC2=O)NC1=O)C(C)C [IGF1 B:A(pNH2-Phe)^A19]	1.6 h
62.4%	193.5%	3.6%	CC[C@H](C)[C@H](NC(=O)CN)C(=O)N[C@H](C(=O)N[C@@H](CC(=O)O)C(=O)N[C@@H](CCC(=O)O)C(=O)N[C@H]1CSSC[C@@H]2NC(=O)[C@H](CO)NC(=O)[C@H](CCCNC(=N)N)NC(=O)[C@H](Cc3ccccc3)NC(=O)[C@H](CSSC[C@H](NC(=O)[C@H](CC(C)C)NC(=O)[C@H](Cc3c[nH]cn3)NC(=O)[C@H](CCC(N)=O)NC(=O)[C@H](CC(N)=O)NC(=O)[C@@H](NC(=O)[C@@H](N)Cc3ccccc3)C(C)C)C(=O)NCC(=O)N[C@@H](C)C(=O)N[C@@H](CCC(=O)O)C(=O)N[C@@H](CC(C)C)C(=O)N[C@@H](C(C)C)C(=O)N[C@@H](CC(=O)O)C(=O)N[C@@H](C)C(=O)N[C@@H](CC(C)C)C(=O)N[C@@H](Cc3ccc(O)cc3)C(=O)N[C@@H](CC(C)C)C(=O)N[C@@H](C(C)C)C(=O)N[C@H](C(=O)NCC(=O)N[C@@H](CC(=O)O)C(=O)N[C@@H](CCCNC(=N)N)C(=O)NCC(=O)N[C@@H](Cc3ccccc3)C(=O)N[C@@H](Cc3ccc(O)cc3)C(=O)N[C@@H](Cc3ccccc3)C(=O)N[C@@H](CC(N)=O)C(=O)N[C@@H](CCCCN)C(=O)N3CCC[C@H]3C(=O)N[C@H](C(N)=O)[C@@H](C)O)CSSC[C@@H](C(=O)N[C@@H](C)C(N)=O)NC(=O)[C@H](Cc3ccc(O)cc3)NC(=O)[C@H](CCSC)NC(=O)[C@H](CCC(=O)O)NC(=O)[C@H](CC(C)C)NC(=O)[C@H](CCCNC(=N)N)NC(=O)[C@H](CCCNC(=N)N)NC(=O)[C@H](CC(C)C)NC(=O)[C@H](CC(=O)O)NC2=O)NC1=O)C(C)C [IGF-1 A: In B (1-5)-IGF-1 B (YL) (6-30)]	
